# Experimental data reported in patent publication US20230123334A1, “AMINO LIPID COMPOUND, PREPARATION METHOD THEREFOR, AND APPLICATION THEREOF” (SHENZHEN SHENXIN BIOTECHNOLOGY CO., LTD., priority 2020, published 2023).
# Test system: HEK293 cells
# Experiment: Preliminary screening as DNA vectors, GFP transfection of HEK293 cells
# Assay type: cell-based
# Settings: amino lipid/DOPE liposome with 75 ng plasmid DNA (psin-EGFP-IRES-Puro); number of GFP-expressing cells divided by total nuclei (Hoechst)
# Method in brief: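 HEK293 cells in DMEM/10% FBS transfected with 75 ng EGFP plasmid per well complexed with amino lipid/DOPE liposomes in pH 5.6 sodium acetate. Hoechst nuclear stain added 20-24 h post-transfection, then cells cultured another 20-24 h. Confocal imaging gives GFP-positive cells as % of total nuclei.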
row,Structure (SMILES),Absolute DNA transfection efficiency in HEK293 cells
1,CCCCCCCCCCCCCCSc1nc(NCCCCCCC)nc(NCCN(CC)CC)n1 [S14N7 D7],10.5%
2,CCCCCCCCCCCCCCSc1nc(NCCCCCCC)nc(NCCCN2CCOCC2)n1 [S14N7 D8],13.3%
3,CCCCCCCCCCCCCCSc1nc(NCCCCCCC)nc(NCCCN2CCN(C)CC2)n1 [S14N7 D9],16.1%
4,CCCCCCCCCCCCCCSc1nc(NCCCCCCC)nc(NCC2CCN(C)CC2)n1 [S14N7 D10],34.6%
5,CCCCCCCCCCCCCCSc1nc(NCCCCCCCC)nc(NCCN(C)C)n1 [S14N8 D1],8.9%
6,CCCCCCCCCCCCCCSc1nc(NCCCCCCCC)nc(NCCN2CCOCC2)n1 [S14N8 D2],12.9%
7,CCCCCCCCCCCCCCSc1nc(NCCCCCCCC)nc(NCCN2CCCC2)n1 [S14N8 D3],24.4%
8,CCCCCCCCCCCCCCSc1nc(NCCCCCCCC)nc(NCCN2CCCCC2)n1 [S14N8 D4],2.6%
9,CCCCCCCCCCCCCCSc1nc(NCCCCCCCC)nc(NCCN2CCN(C)CC2)n1 [S14N8 D5],19.6%
10,CCCCCCCCCCCCCCSc1nc(NCCCCCCCC)nc(NCCCN(C)C)n1 [S14N8 D6],33.4%
11,CCCCCCCCCCCCCCSc1nc(NCCCCCCCC)nc(NCCN(CC)CC)n1 [S14N8 D7],1.6%
12,CCCCCCCCCCCCCCSc1nc(NCCCCCCCC)nc(NCCCN2CCOCC2)n1 [S14N8 D8],9.8%
13,CCCCCCCCCCCCCCSc1nc(NCCCCCCCC)nc(NCCCN2CCN(C)CC2)n1 [S14N8 D9],15.7%
14,CCCCCCCCCCCCCCSc1nc(NCCCCCCCC)nc(NCC2CCN(C)CC2)n1 [S14N8 D10],26.2%
15,CCCCCCCCCCCCCCSc1nc(NCCCCCCCCC)nc(NCCN(C)C)n1 [S14N9 D1],20.8%
16,CCCCCCCCCCCCCCSc1nc(NCCCCCCCCC)nc(NCCN2CCOCC2)n1 [S14N9 D2],9.7%
17,CCCCCCCCCCCCCCSc1nc(NCCCCCCCCC)nc(NCCN2CCCC2)n1 [S14N9 D3],30.7%
18,CCCCCCCCCCCCCCSc1nc(NCCCCCCCCC)nc(NCCN2CCCCC2)n1 [S14N9 D4],2.0%
19,CCCCCCCCCCCCCCSc1nc(NCCCCCCCCC)nc(NCCN2CCN(C)CC2)n1 [S14N9 D5],16.9%
20,CCCCCCCCCCCCCCSc1nc(NCCCCCCCCC)nc(NCCCN(C)C)n1 [S14N9 D6],43.9%
21,CCCCCCCCCCCCCCSc1nc(NCCCCCCCCC)nc(NCCN(CC)CC)n1 [S14N9 D7],10.6%
22,CCCCCCCCCCCCCCSc1nc(NCCCCCCCCC)nc(NCCCN2CCOCC2)n1 [S14N9 D8],10.7%

row,Structure (SMILES),Absolute DNA transfection efficiency in HEK293 cells
1,CCCCCCCCCCCCCCSc1nc(NCCCCCCCCC)nc(NCCCN2CCN(C)CC2)n1 [S14N9 D9],16.7%
2,CCCCCCCCCCCCCCSc1nc(NCCCCCCCCC)nc(NCC2CCN(C)CC2)n1 [S14N9 D10],17.6%
3,CCCCCCCCCCCCCCSc1nc(NCCCCCCCCCCC)nc(NCCN(C)C)n1 [S14N11 D1],11.8%
4,CCCCCCCCCCCCCCSc1nc(NCCCCCCCCCCC)nc(NCCN2CCOCC2)n1 [S14N11 D2],12.5%
5,CCCCCCCCCCCCCCSc1nc(NCCCCCCCCCCC)nc(NCCN2CCCC2)n1 [S14N11 D3],25.2%
6,CCCCCCCCCCCCCCSc1nc(NCCCCCCCCCCC)nc(NCCN2CCCCC2)n1 [S14N11 D4],3.1%
7,CCCCCCCCCCCCCCSc1nc(NCCCCCCCCCCC)nc(NCCN2CCN(C)CC2)n1 [S14N11 D5],13.3%
8,CCCCCCCCCCCCCCSc1nc(NCCCCCCCCCCC)nc(NCCCN(C)C)n1 [S14N11 D6],17.0%
9,CCCCCCCCCCCCCCSc1nc(NCCCCCCCCCCC)nc(NCCN(CC)CC)n1 [S14N11 D7],8.6%
10,CCCCCCCCCCCCCCSc1nc(NCCCCCCCCCCC)nc(NCCCN2CCOCC2)n1 [S14N11 D8],2.2%
11,CCCCCCCCCCCCCCSc1nc(NCCCCCCCCCCC)nc(NCCCN2CCN(C)CC2)n1 [S14N11 D9],10.2%
12,CCCCCCCCCCCCCCSc1nc(NCCCCCCCCCCC)nc(NCC2CCN(C)CC2)n1 [S14N11 D10],9.0%
13,CCCCCCCCCCCCCCSc1nc(NCCCCCCCCCCCC)nc(NCCN(C)C)n1 [S14N12 D1],15.3%
14,CCCCCCCCCCCCCCSc1nc(NCCCCCCCCCCCC)nc(NCCN2CCOCC2)n1 [S14N12 D2],1.6%
15,CCCCCCCCCCCCCCSc1nc(NCCCCCCCCCCCC)nc(NCCN2CCCC2)n1 [S14N12 D3],21.0%
16,CCCCCCCCCCCCCCSc1nc(NCCCCCCCCCCCC)nc(NCCN2CCCCC2)n1 [S14N12 D4],3.8%
17,CCCCCCCCCCCCCCSc1nc(NCCCCCCCCCCCC)nc(NCCN2CCN(C)CC2)n1 [S14N12 D5],9.8%
18,CCCCCCCCCCCCCCSc1nc(NCCCCCCCCCCCC)nc(NCCCN(C)C)n1 [S14N12 D6],6.3%
19,CCCCCCCCCCCCCCSc1nc(NCCCCCCCCCCCC)nc(NCCN(CC)CC)n1 [S14N12 D7],1.1%
20,CCCCCCCCCCCCCCSc1nc(NCCCCCCCCCCCC)nc(NCCCN2CCOCC2)n1 [S14N12 D8],2.1%
21,CCCCCCCCCCCCCCSc1nc(NCCCCCCCCCCCC)nc(NCCCN2CCN(C)CC2)n1 [S14N12 D9],4.1%
22,CCCCCCCCCCCCCCSc1nc(NCCCCCCCCCCCC)nc(NCC2CCN(C)CC2)n1 [S14N12 D10],5.8%

row,Structure (SMILES),Absolute DNA transfection efficiency in HEK293 cells
1,CCCCCCCCCCCCCCSc1nc(NCCCCCCCCCCCCC)nc(NCCN(C)C)n1 [S14N13 D1],1.1%
2,CCCCCCCCCCCCCCSc1nc(NCCCCCCCCCCCCC)nc(NCCN2CCOCC2)n1 [S14N13 D2],0.0%
3,CCCCCCCCCCCCCCSc1nc(NCCCCCCCCCCCCC)nc(NCCN2CCCC2)n1 [S14N13 D3],9.1%
4,CCCCCCCCCCCCCCSc1nc(NCCCCCCCCCCCCC)nc(NCCN2CCCCC2)n1 [S14N13 D4],3.9%
5,CCCCCCCCCCCCCCSc1nc(NCCCCCCCCCCCCC)nc(NCCN2CCN(C)CC2)n1 [S14N13 D5],1.9%
6,CCCCCCCCCCCCCCSc1nc(NCCCCCCCCCCCCC)nc(NCCCN(C)C)n1 [S14N13 D6],2.6%
7,CCCCCCCCCCCCCCSc1nc(NCCCCCCCCCCCCC)nc(NCCN(CC)CC)n1 [S14N13 D7],2.8%
8,CCCCCCCCCCCCCCSc1nc(NCCCCCCCCCCCCC)nc(NCCCN2CCOCC2)n1 [S14N13 D8],0.3%
9,CCCCCCCCCCCCCCSc1nc(NCCCCCCCCCCCCC)nc(NCCCN2CCN(C)CC2)n1 [S14N13 D9],1.4%
10,CCCCCCCCCCCCCCSc1nc(NCCCCCCCCCCCCC)nc(NCC2CCN(C)CC2)n1 [S14N13 D10],2.2%
11,CCCCCCCCCCCCCCCNc1nc(NCCN(C)C)nc(SCCCCCCCCCCCCCC)n1 [S14N15 D1],0.4%
12,CCCCCCCCCCCCCCCNc1nc(NCCN2CCOCC2)nc(SCCCCCCCCCCCCCC)n1 [S14N15 D2],0.1%
13,CCCCCCCCCCCCCCCNc1nc(NCCN2CCCC2)nc(SCCCCCCCCCCCCCC)n1 [S14N15 D3],1.0%
14,CCCCCCCCCCCCCCCNc1nc(NCCN2CCCCC2)nc(SCCCCCCCCCCCCCC)n1 [S14N15 D4],0.4%
15,CCCCCCCCCCCCCCCNc1nc(NCCN2CCN(C)CC2)nc(SCCCCCCCCCCCCCC)n1 [S14N15 D5],0.4%
16,CCCCCCCCCCCCCCCNc1nc(NCCCN(C)C)nc(SCCCCCCCCCCCCCC)n1 [S14N15 D6],0.8%
17,CCCCCCCCCCCCCCCNc1nc(NCCN(CC)CC)nc(SCCCCCCCCCCCCCC)n1 [S14N15 D7],1.1%
18,CCCCCCCCCCCCCCCNc1nc(NCCCN2CCOCC2)nc(SCCCCCCCCCCCCCC)n1 [S14N15 D8],0.3%
19,CCCCCCCCCCCCCCCNc1nc(NCCCN2CCN(C)CC2)nc(SCCCCCCCCCCCCCC)n1 [S14N15 D9],0.7%
20,CCCCCCCCCCCCCCCNc1nc(NCC2CCN(C)CC2)nc(SCCCCCCCCCCCCCC)n1 [S14N15 D10],0.7%
